# Reference: US12397059B2, “Compounds and methods for the treatment and prevention of fibrotic disease states and cancer” (Purdue Research Foundation, priority 2019, dated 2025)
# Key:
# [1] = system: M2-induced THP-1 macrophages; test: Secreted CCL18 and IL-1β in THP-1 supernatants by ELISA; type: cell-based, human
# Experimental: FIGS. 6A-6D show graphical data representative of various marker levels measured from M2-induced THP-1 macrophages treated with different concentrations of drugs for 48 hours (FIGS. 6A and 6B) or for 2 hours, then displaced with fresh medium and cultured for the remaining 46 hours (FIGS. 6C and 6D). In both cases, cell supernatants were collected and secreted CCL18 protein and IL-1β was detected by ELISA.
# Further, to ensure that the above mRNA analyses accurately reflected the levels of profibrotic cytokines produced by IL-4, IL-6 plus IL-13 stimulated THP-1 cells, the concentrations of CCL18 and IL-1β polypeptides in the THP-1 supernatants were quantitated by ELISA assay.
# CCL18 and IL-1β were quantified in induced THP-1 cell supernatants using a human DuoSet ELISA Development System (R&D Systems Europe, Abingdon, UK; #DY394-05) and an IL-1 beta Human ELISA Kit (Thermo Fisher Scientific, Waltham, MA; #BMS224-2) as described by manufactures.
# [2] = system: BM-induced experimental pulmonary fibrosis in mice
# Experimental: Studies were also performed to determine if macrophages in pulmonary fibrotic lungs might be specifically targeted with folate-linked drugs in vivo. […] (The BM model is widely regarded to be helpful in terms of enabling mechanistic investigations relevant to fibrogenesis in an in vivo context.)
# More specifically, eight-week-old C57BL6 male mice from Charles River (average weight 22 g to 25 g) were housed under pathogen-free conditions at room temperature (22° C.) under a 12 hours light-dark cycle. Mice were placed on a folate deficient chow (Envigo Teklad Global Rat Food Pellets) for 1 week prior to the BM or PBS instillation. Fresh water and folate-deficient diet were freely available. All animal procedures were approved by the Purdue Animal Care and Use Committee in accordance with National Institute of Health guidelines.
# Thereafter, the mice were anesthetized with ketamine/xylazine and the necks of the mice were shaved using hair remover lotion and then sterilized with 70% alcohol. A small incision was made on the neck to visualize the trachea. Mice were positioned at a 75-degree angle and injected intratracheally with 100 μL sterile PBS or BM (Cayman Chemicals, Ann Arbor, MI; #13877) dissolved in PBS (0.75 mg/kg) using a 1 cc syringe with 26 G needle. Body weights were monitored every other day throughout the experiment.
# Lobes of the right lung collected above were weighed, placed in a pressure-tight vial (Supelco Inc., Bellefonte, PA; #27003), and hydrolyzed with 6N HCl (10 ml/g, v/w) in a sand bath at 120° C. for 3.5 hours. The hydrolyzed solution was cooled at 4° C. for 15 min and transferred to a 1.5 ml Eppendorf tube prior to centrifugation at 12,000 rcf for 15 min at 4° C. Supernatant was carefully collected, aliquoted and used for hydroxyproline (HYP) analysis.
# For the subsequent HYP analysis, 10 μl of sample was transferred into a 96-well plate and neutralized with 10 μl of 5.3 M sodium hydroxide solution. Isopropanol (40 μl) was then added to each well followed by 20 μl of oxidation buffer and the mixture was incubated on a shaker at room temperature for 5 min. Analytical reagent (260 μl) was added, and the plate was incubated on a shaker at room temperature for 30 seconds and incubated immediately at 60° C. for 25 min. The absorbance was measured at 560 nm (A560) within 15 min. All reagents were prepared according to a previously reported protocol.
# For histological analysis of the lung sections, fixed lungs (see above) were embedded in paraffin, sectioned and stained with hematoxylin-eosin (H&E), Masson's trichrome or F3 (anti-mouse FRβ antibody). Tissue sections were examined in a blinded manner by a licensed pathologist. More than 90×10^6 cells were quantified per section using Aperio-Image Scope (Leica Biosystems, Wetzlar, DE).
# For this, BM-treated mice were intravenously injected every other day beginning on day 10 with either vehicle (3% DMSO in PBS) or Compound 1B (see FIG. 8A). […] In BM-induced experimental pulmonary fibrosis in mice, inflammation is known to persist for about 9-10 days after BM installation. Because, inflammation to fibrosis switch happens in this model approximately day 9 to day 14, and profibrotic markers start appearing at about day 10, dosing began on day 10 (FIG. 8A).
# Two doses were given every other day till day 21. The individual doses on a day are separated by 6 hours to prevent any “tolerance” to TLR agonists. Mice were then sacrificed on day 21 and subjected immediately to bronchoalveolar lavage followed by resection of the lungs for immunohistochemistry and quantitation of collagen and hydroxyproline.
# [3] = system: M2-induced human monocyte-derived macrophages; test: Reprogramming of M2-induced human monocyte-derived macrophages with FA-glucosamine competition; type: cell-based; settings: 100 nM, 2 hours then 46 hours without drug
# Experimental: Changes in both sets of cytokines were inhibited by blockade of unoccupied folate receptors with excess FA-glucosamine (2+46 h, competition).
# healthy mice = test: Plasma cytokine levels in healthy mice after tail vein injection; type: in vivo
# Experimental: (FIGS. 20A-C) Measurement of plasma IL-6 (FIG. 20A), IFNα (FIG. 20B) and TNFα (FIG. 20C) (n=3). (FIGS. 20D-F). The effect of drug concentration on plasma levels of IL-6 (FIG. 20D), IFNα (FIG. 20E), and TNFα (FIG. 20F) was determined at 1.5 h, 1 h, or 1 h after treatment, respectively (n=2) (FIG. 20G).
# [4] = incubated continuously for 48 hours, ELISA
smiles,measurement,setting,value
CCCCc1nc2c(N)nc3ccccc3c2n1CC(C)(C)OC(=O)OCCSSCC(NC(=O)CCC(NC(=O)c1ccc(NCc2cnc3nc(N)[nH]c(=O)c3n2)cc1)C(=O)O)C(=O)O (centres unmarked) [Compound 1B],"reduction of secreted CCL18 and IL-1β, comparison of the two agonists","[1]; drug exposure limited to 2 hours, then 46 hours fresh medium",superior
same,secreted CCL18 protein,[1]; [4],reductions
same,secreted IL-1β,[1]; [4],reductions
same,lung histology with increasing dose,"[2]; 1, 3, 10 nmol",lung histology improved
same,order of efficacy on lung hydroxyproline content,[2]; day 21,10 nmol/mouse>3 nmol/mouse>1 nmol/mouse>0 nmol/mouse
same,"anti-fibrotic response, lung sections stained DAPI, anti-F4/80, anti-CD206",[2]; differences between treated groups,robust anti-fibrotic response
same,"collagen stain, Masson's trichrome",[2]; tail vein injection,strongly suppressed
same,"lung histology, H&E staining",[2]; treated beginning on day 10,lung architecture that resembles that of healthy mice
same,downregulation of biomarkers in presence of excess FA-glucosamine (competitor),[3],blocked
same,"systemic cytokine release (plasma IL-6, IFNα, TNFα)",healthy mice; 10 nmol tail vein,does not
same,"inflammatory cytokine release, dose comparison",healthy mice; effect of drug concentration,stimulates less inflammatory cytokine release than half the dose of Compound 1A
